Consider three compounds from US8933133B2, “Animal feeds containing polyols” (ADM Alliance Nutrition, Inc., priority 2006, dated 2015).

The structures appear in SMILES notation.

Data set [1] deals with circulating non-esterified fatty acids (NEFA). The data set can be described thus: Circulating non-esterified fatty acids in lambs fed a polyol supplement. The data set is classed as in vivo. As to conditions: lambs fed restricted diet (75% of maintenance energy requirements), supplement 25 to 45 grams/lamb, blood 1-24 hours after dose.
Description: In this Example, the effect of a diet comprising an isolated or purified polyol on the level of circulating non-esterified fatty acids (“NEFA”) in lambs was examined.
Four lambs were used in this Example. The lambs were fed a basal diet the first week followed by at least 4 weeks during which the supplement treatments were evaluated. The lambs were fed a diet supplement comprising sorbitan during the second and third weeks of the treatment. The lambs were fed a diet supplement comprising polyglycerol during the fourth and fifth weeks of the treatment. The diet supplements were fed separate from the basal diet feed.
In a further data set the test system is rumen fluid. Put plainly: In vitro fermentation of polyols in an artificial rumen environment using rumen fluid as inoculum. The following applies: for fermentation rate: in vitro rumen fermentation, gas production monitored every 30 minutes; for fermentation rate / extent of fermentation: in words; for extent of fermentation: by 24 hours, judged from final gas volume and VFA. As to the method: Fermentations were performed on two separate days where gas production was monitored every 30 minutes. In addition, pH, ammonia (NH3), and volatile fatty acid (“VFA”) production were measured after 24 hours. Duplicate samples of each compound were evaluated using in vitro rumen fermentations.
Duplicate samples of these compounds were fermented in vitro using rumen fluid as inoculum. Samples were weighed into 150 mL serum bottles (0.3 grams per bottle) using a CO2 atmosphere to provide an anaerobic environment. A standard buffered media was prepared (no additional feed matter was included in the fermentation), degassed, and added to the serum bottles (see, Goering, H. K., and P. J. Van Soest, “Forage Fiber Analyses (Apparatus, Reagents, Procedures, and Some Applications),” Agric. Handbook, No 379, ARS-USDA, Washington, D.C., 1970). Rumen fluid was obtained from a dairy cow, filtered, and added to the serum bottles as 20% of the total fluid addition (30 mL total fluid volume). The serum bottles were sealed, placed in an incubator, and the fermentation was allowed to proceed. Fermentations were performed on two separate days, during which time gas production was monitored every 30 minutes and pH, NH3, and VFA production measured after 24 hours.

In the case of `OC[C@@H](O)[C@H]1OC[C@H](O)[C@H]1O` [Sorbitan, 1,4-anhydro-D-sorbitol], the “change in circulating NEFA levels” value in data set [1] was “decrease in circulating NEFA levels”. In addition, the rumen escape entry with rumen fluid (estimated from rate of in vitro fermentation / gas production, by weight escaping fermentation in the rumen) is given as “greater than 80%”. Besides, the fermentation rate entry with rumen fluid is listed as “slower than glucose, sorbitol, or glycerol”.
For the compound `OC[C@@H](O)[C@@H](O)[C@H](O)[C@@H](O)CO` [Sorbitol, sorbitol], in the data set with rumen fluid, the extent of fermentation entry is “largely fermented by 24 hours” and the fermentation rate result was “slower than glucose”.
For the compound `OCC(O)CO` [Glycerol, glycerol], the extent of fermentation result with rumen fluid is recorded as “largely fermented by 24 hours”.
